In assay [1] the test system is 17beta-HSD3 (Rattus norvegicus). Description: Inhibition of 17beta-HSD3 at 100 uM.
In assay [2] the target is 17beta-HSD3 (Rattus norvegicus). Put plainly: Inhibition of 17beta-HSD3.

On to `CCCCCCCC(=O)c1ccc(O)cc1`, for which the inhibition in assay [1] amounted to 82.6%. Inhibition in assay [2] was half-maximal at 6.52 µM (IC50).

On to `CCCCCC(=O)c1ccc(O)cc1`, for which, in assay [1], the inhibition amounted to 76.4%. Moreover, in assay [2], the IC50 amounted to 18 µM.

As for `CCCCCCCCCCCC(=O)c1ccc(O)cc1`, in assay [1], the inhibition is 78.9%. Moreover, in assay [2], the 50% inhibitory concentration (IC50) was 7.55 µM.

In turn, `CCCCCCCCCC(=O)c1ccc(O)cc1` registered an inhibition in assay [1] of 81.4%. The same compound came in with a concentration for half-maximal inhibition (IC50) in assay [2] of 4.97 µM.

Turning to `CCCCCCC(=O)c1ccc(O)cc1`, in assay [1], the inhibition worked out at 80.3%. In assay [2], this compound gave an IC50 of 7.84 µM.

By inhibition is commonly meant the share of the control response that was lost under treatment. Higher therefore signals strong suppression. The term IC50 denotes the point on the concentration scale where inhibition reaches its midpoint. Low values mean greater potency in that assay, high ones weaker potency in that assay.
